The test concerns the target T1, human M1 receptor (hCHRM1) (Homo sapiens, UniProt P11229).
T1 construct: expressed in transfected cells; host or cells: CHO-K1
T1 sequence (P11229 1-460): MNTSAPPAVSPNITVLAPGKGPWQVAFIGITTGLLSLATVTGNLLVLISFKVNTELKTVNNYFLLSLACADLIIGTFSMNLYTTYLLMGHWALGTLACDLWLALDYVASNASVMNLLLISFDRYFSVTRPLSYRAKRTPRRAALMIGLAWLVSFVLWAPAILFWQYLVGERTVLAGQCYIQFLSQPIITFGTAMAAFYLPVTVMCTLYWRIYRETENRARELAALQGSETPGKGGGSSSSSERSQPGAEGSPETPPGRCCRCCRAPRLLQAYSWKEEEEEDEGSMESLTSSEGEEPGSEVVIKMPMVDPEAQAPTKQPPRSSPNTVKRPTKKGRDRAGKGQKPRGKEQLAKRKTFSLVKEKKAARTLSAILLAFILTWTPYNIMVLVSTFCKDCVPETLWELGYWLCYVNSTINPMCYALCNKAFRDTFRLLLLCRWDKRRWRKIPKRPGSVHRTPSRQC
In words: Measurement of M1 receptor positive allosteric modulator (M1PAM) activity, calcium fluorescence (FLIPRtetra) in CHO-K1 cells in the presence of acetylcholine at EC20. The test is classed as cell-based. The note with it: in the presence of acetylcholine at EC20 (final 0.6 nM), CHO-K1 cells expressing hCHRM1; for EC50: inflection point of M1PAM activity, read-out: IP value; for activity (%) at 10 μM: test compound 10 μM. The essentials: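 CHO-K1 cells expressing human M1 were loaded with Fluo-4 AM, and compound was added with acetylcholine at EC20 (final 0.6 nM). Calcium fluorescence was read on FLIPRtetra for 1 min. Activity was normalized to 1 μM acetylcholine (100%) and DMSO (0%), and the curve inflection point was reported as IP.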

Each structure is given as a SMILES string.

We go through 21 molecules from patent US9777005B2 (Takeda Pharmaceutical Company Limited, priority 2012, dated 2017).

For the molecule `Cn1cc(-c2coc(CN3Cc4cccc(Oc5c(F)cccc5C#N)c4C3=O)c2)cn1` [Example 69, 3-fluoro-2-((2-((4-(1-methyl-1H-pyrazol-4-yl)-2-furyl)methyl)-3-oxo-2,3-dihydro-1H-isoindol-4-yl)oxy)benzonitrile], the EC50 stood at 410 nM and the “activity (%) at 10 μM” value amounted to 103%.
The corresponding values for `Cc1cc(-c2ccc(CN3Cc4cccc(Oc5c(F)cccc5C#N)c4C3=O)cc2)ccn1` [Example 72, 3-fluoro-2-((2-(4-(2-methylpyridin-4-yl)benzyl)-3-oxo-2,3-dihydro-1H-isoindol-4-yl)oxy)benzonitrile] are 88 nM and 102%.
For `Cn1cc(-c2ccc(CN3Cc4cccc(Oc5c(F)cc(F)cc5C#N)c4C3=O)cc2)cn1` [Example 73], in that order: 24 nM and 99%.
For `Cc1nn(C)cc1-c1ccc(CN2Cc3ccnc(OCC4CCCO4)c3C2=O)cc1` (stereo not drawn) [Example 78, 2-(4-(1,3-dimethyl-1H-pyrazol-4-yl)benzyl)-4-((tetrahydrofuran-2-yl)methoxy)-1,2-dihydro-3H-pyrrolo[3,4-c]pyridin-3-one], in that order: 10 nM and 104%.
For the molecule `Cn1ccc(-c2ccc(CN3Cc4ccnc(OCC5CCCO5)c4C3=O)cc2)n1` (stereo not drawn) [Example 79, 2-(4-(1-methyl-1H-pyrazol-3-yl)benzyl)-4-((tetrahydrofuran-2-yl)methoxy)-1,2-dihydro-3H-pyrrolo[3,4-c]pyridin-3-one], the EC50 amounted to 29 nM and the “activity (%) at 10 μM” value came to 114%.
For the molecule `Cc1cc(-c2ccc(CN3Cc4ccnc(OCC5CCCO5)c4C3=O)cc2)ccn1` (stereo not drawn) [Example 80], the EC50 amounted to 5.6 nM and the “activity (%) at 10 μM” value was 100%.
The corresponding values for `O=C1c2c(cccc2Oc2c(F)cccc2Cl)CN1Cc1ccc(-c2ccnnc2)cc1` [Example 81, 7-(2-chloro-6-fluorophenoxy)-2-(4-(pyridazin-4-yl)benzyl)isoindolin-1-one] are 170 nM and 57%.
For `O=C1c2c(ccnc2OCC2CCCO2)CN1Cc1ccc(-n2cccn2)cc1F` (stereo not drawn) [Example 86, 2-(2-fluoro-4-(1H-pyrazol-1-yl)benzyl)-4-((tetrahydrofuran-2-yl)methoxy)-1,2-dihydro-3H-pyrrolo[3,4-c]pyridin-3-one], in that order: 17 nM and 104%.
The corresponding values for `Cc1nn(C)cc1-c1ccc(CN2Cc3ccnc(OCCn4cccn4)c3C2=O)cc1` [Example 225, 2-(4-(1,3-dimethyl-1H-pyrazol-4-yl)benzyl)-4-(2-(1H-pyrazol-1-yl)ethoxy)-1,2-dihydro-3H-pyrrolo[3,4-c]pyridin-3-one] are 51 nM and 104%.
`Cc1nn(C)cc1-c1ccc(CN2Cc3ccnc(OCC4CCCO4)c3C2=O)c(F)c1` (stereo not drawn) [Example 229, 2-(4-(1,3-dimethyl-1H-pyrazol-4-yl)-2-fluorobenzyl)-4-((tetrahydrofuran-2-yl)methoxy)-1,2-dihydro-3H-pyrrolo[3,4-c]pyridin-3-one]: the EC50 stood at 6.1 nM and the “activity (%) at 10 μM” value worked out at 117%.
The corresponding values for `Cn1ccc(-c2ccc(CN3Cc4ccnc(OCC5CCCO5)c4C3=O)c(F)c2)n1` (stereo not drawn) [Example 230, 2-(2-fluoro-4-(1-methyl-1H-pyrazol-3-yl)benzyl)-4-((tetrahydrofuran-2-yl)methoxy)-1,2-dihydro-3H-pyrrolo[3,4-c]pyridin-3-one] are 10 nM and 113%.
The corresponding values for `Cn1cc(-c2ccc(CN3Cc4ccnc(Oc5c(F)cccc5Cl)c4C3=O)cc2)nn1` [Example 231, 4-(2-chloro-6-fluorophenoxy)-2-(4-(1-methyl-1H-1,2,3-triazol-4-yl)benzyl)-1,2-dihydro-3H-pyrrolo[3,4-c]pyridin-3-one] are 24 nM and 106%.
For `O=C1c2c(ccnc2OCC2CCCO2)CN1Cc1ccc(-n2cc(F)cn2)cc1` (stereo not drawn) [Example 234, 2-(4-(4-fluoro-1H-pyrazol-1-yl)benzyl)-4-((tetrahydrofuran-2-yl)methoxy)-1,2-dihydro-3H-pyrrolo[3,4-c]pyridin-3-one], in that order: 38 nM and 91%.
Regarding `Cc1nn(C)cc1-c1ccc(CN2Cc3cccc(O[C@@H]4COCC[C@H]4O)c3C2=O)cc1` [Example 251, 1,5-anhydro-2-deoxy-4-O-(2-(4-(1,3-dimethyl-1H-pyrazol-4-yl)benzyl)-3-oxo-2,3-dihydro-1H-isoindol-4-yl)-threo-pentitol], the EC50 was 7.5 nM and the “activity (%) at 10 μM” value is 117%.
The corresponding values for `Cc1nn(C)cc1-c1ccc(CN2Cc3ccnc(OCC4CCCCO4)c3C2=O)cc1` (stereo not drawn) [Example 252, 2-(4-(1,3-dimethyl-1H-pyrazol-4-yl)benzyl)-4-((tetrahydro-2H-pyran-2-yl)methoxy)-1,2-dihydro-3H-pyrrolo[3,4-c]pyridin-3-one] are 7.6 nM and 99%.
On to `Cn1ccc(-c2ccc(CN3Cc4ccnc(OCC5CCCCO5)c4C3=O)cc2)n1` (stereo not drawn) [Example 253, 2-(4-(1-methyl-1H-pyrazol-3-yl)benzyl)-4-((tetrahydro-2H-pyran-2-yl)methoxy)-1,2-dihydro-3H-pyrrolo[3,4-c]pyridin-3-one], for which the EC50 was 22 nM and the “activity (%) at 10 μM” value came out at 100%.
On to `Cn1cc(-c2ccc(CN3Cc4ccnc(OCCC5CC5)c4C3=O)cc2)nn1` [Example 254, 4-(2-cyclopropylethoxy)-2-(4-(1-methyl-1H-1,2,3-triazol-4-yl)benzyl)-1,2-dihydro-3H-pyrrolo[3,4-c]pyridin-3-one], for which the EC50 came out at 67 nM and the “activity (%) at 10 μM” value is reported as 110%.
For `Cn1cc(-c2ccc(CN3Cc4ccnc(OCCC5CC5)c4C3=O)c(F)c2)nn1` [Example 260, 4-(2-cyclopropylethoxy)-2-(2-fluoro-4-(1-methyl-1H-1,2,3-triazol-4-yl)benzyl)-1,2-dihydro-3H-pyrrolo[3,4-c]pyridin-3-one], in that order: 45 nM and 109%.
For `CCC(O)COc1cccc2c1C(=O)N(Cc1ccc(-c3cnn(C)c3)cc1)C2` (stereo not drawn) [Example 261, 7-(2-hydroxybutoxy)-2-(4-(1-methyl-1H-pyrazol-4-yl)benzyl)isoindolin-1-one], in that order: 25 nM and 98%.
The corresponding values for `Cc1nn(C)cc1-c1ccc(CN2Cc3ccnc(OCC4CCOCC4)c3C2=O)c(F)c1` [Example 262, 2-(4-(1,3-dimethyl-1H-pyrazol-4-yl)-2-fluorobenzyl)-4-((tetrahydro-2H-pyran-4-yl)methoxy)-1,2-dihydro-3H-pyrrolo[3,4-c]pyridin-3-one] are 54 nM and 107%.
For the molecule `Cn1cc(-c2ccc(CN3Cc4ccnc(OCC5CCC5)c4C3=O)c(F)c2)nn1` [Example 263, 4-(cyclobutylmethoxy)-2-(2-fluoro-4-(1-methyl-1H-1,2,3-triazol-4-yl)benzyl)-1,2-dihydro-3H-pyrrolo[3,4-c]pyridin-3-one], the EC50 was 41 nM and the “activity (%) at 10 μM” value worked out at 106%.
